Data taken from patent US6613956B1, “PI 3-kinase fusion mutants and uses thereof” (Chiron Corporation, priority 1996, dated 2003).

What was measured:
Akt = target: T1, Akt (Mus musculus, UniProt P31750); assay: In vitro protein kinase assay of immobilized Akt preincubated with phospholipid vesicles, histone H2B as substrate; type: biochemical; conditions: for increases Akt activity: summary statement for the three PI 3-kinase products; for stimulation of Akt: p110*-generated PI3,4P2 in PC vesicles, relative to unstimulated Akt
T1 construct: made in house; host or cells: COS-7 cells (transient transfection, anti-HA 12CA5 immunoprecipitation on Protein A-Sepharose)

Akt RC25 = target: T2, Akt RC25 (Homo sapiens, UniProt P31749, R25C); assay: In vitro kinase assay of PH domain point mutant Akt RC25 with PI3,4P2 vesicles; type: biochemical; conditions: vesicles generated with p110*
T2 construct: made in house; host or cells: COS-7 cells (transient transfection, anti-HA 12CA5 immunoprecipitation on Protein A-Sepharose)
Text: We determined that the PH domain at the Akt N-terminus is essential for PI3,4P2 mediated stimulation. It has previously been reported that the stimulation of the kinase activity of Akt by PI 3-kinase in vivo is dependent on the PH domain at its immediate N-terminus. We determined that PI3,4P2 mediates its stimulatory effect on Akt through its PH domain by introducing a point mutation in the PH domain of Akt (Akt RC25) which abrogates PI 3-kinase-mediated Akt activation in vivo. A kinase-deficient Akt, Akt KA179, was tested as an additional control. We incubated Akt, Akt RC25 and Akt KA179 proteins with PI3,4P2 in phospholipid vesicles using p110* as described above. […] The kinase-deficient Akt KA179 had no detectable enzymatic activity.
The assay for the in vitro protein kinase activity of Akt was conducted with immobilized Akt that was preincubated with or without mixed phospholipid vesicles (20 μl) for 10 min and subjected to an in vitro protein kinase assay using histone H2B (Boehringer Mannheim) as a substrate. […] The reactions were stopped by the addition of 8 μl Lammli-sample buffer and 22 μi of each reaction mixture were analyzed by 16% SDS-PAGE. The relative amounts of incorporated radioactivity were visualized by autoradiography and quantitated using a Molecular Imager System (BioRad).

T1 sequence (P31750 whole entry): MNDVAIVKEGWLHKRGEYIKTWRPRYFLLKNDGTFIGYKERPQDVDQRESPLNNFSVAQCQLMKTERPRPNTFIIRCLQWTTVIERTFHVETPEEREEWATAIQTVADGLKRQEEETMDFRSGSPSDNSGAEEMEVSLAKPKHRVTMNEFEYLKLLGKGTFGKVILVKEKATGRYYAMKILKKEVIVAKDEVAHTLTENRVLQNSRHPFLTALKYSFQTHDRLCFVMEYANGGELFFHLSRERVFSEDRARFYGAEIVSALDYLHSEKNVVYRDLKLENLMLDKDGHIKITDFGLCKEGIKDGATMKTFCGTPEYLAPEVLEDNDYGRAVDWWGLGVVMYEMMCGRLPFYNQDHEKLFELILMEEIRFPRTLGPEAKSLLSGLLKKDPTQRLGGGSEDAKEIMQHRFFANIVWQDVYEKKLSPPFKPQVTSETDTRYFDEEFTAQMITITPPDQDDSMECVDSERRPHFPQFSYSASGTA
T2 sequence (P31749 whole entry R25C, the tested form may be a part): as the sequence (P31750 whole entry) above, with N2S, R25C, S50A, A100T, R112K, T117E, T389K, N410G, D415H counted along it

**Q.** With PI 3-phosphate [PI3P] as the substance, how does the “increases Akt activity” value (Akt) read?
**A.** The value was “not”.

**Q.** And the “stimulation of Akt kinase activity” value (Akt; vesicles containing synthetic PI3P, any conditions)?
**A.** Its value is “No stimulation”.

**Q.** How did the Akt activation (Akt; PE/PS vesicles) turn out when “phosphatidylinositol 3,4 bisphosphate [PI3,4P2]” was run?
**A.** The Akt activation was “did not allow activation of Akt”.

**Q.** What about the “stimulation of Akt” value (Akt; 4 μM) of the same substance?
**A.** Its value is 9 fold.

**Q.** What about the “stimulation of Akt” value (Akt; average) of the same substance?
**A.** The value was 3 fold.

**Q.** And the Akt activation (Akt; presence of PS in the PI3,4P2/PC vesicles)?
**A.** The Akt activation was “interfered with Akt activation”.

**Q.** What about the “increases Akt activity” value (Akt) of the same substance?
**A.** Its value is “increases Akt activity”.

**Q.** What about the Akt activation (Akt; synthetic PI3,4P2 in either PE or PS vesicles) of the same substance?
**A.** Its Akt activation is “No activation”.

**Q.** And the “further increase in Akt activation” value (Akt; synthetic dipalmitoyl derivatives of PI3,4P2, 260 nM to 1.3 μM)?
**A.** Its value is “No further increase”.

**Q.** What about the “increase in kinase activity of Akt” value (Akt; synthetic dipalmitoylated PI3,4P2 in PC vesicles) of the same substance?
**A.** The value was “approximately 2.5 fold”.

**Q.** What about the “activation of Akt by PI3,4P2 containing vesicles” value (Akt; wild-type Akt, vesicles generated with p110*) of the same substance?
**A.** The value was “efficiently activated”.

**Q.** And the “activation of Akt RC25 by PI3,4P2 containing vesicles” value (Akt RC25)?
**A.** Its value is “not activated”.
